From US6331642A, “Vitamin D3 analogs” (Hoffmann-La Roche Inc., priority 2000, dated 2001) come the findings set out here.

SMILES strings stand for the structures.

One assay relates to ventral prostate. Description: Antiandrogenic activity in castrated testosterone stimulated hamsters, ventral prostate. The note with it: testosterone 20 μg s.c. daily, 14 days; vehicle 12 ± 1. The assay is classed as in vivo, male Syrian hamsters. The method, then: (§1) 1,25(OH)2 -16-ene-5,6-trans D3 was evaluated for antiandrogenic activity in castrated, testosterone stimulated male Syrian hamsters.
(§2) […] Both compounds were administered in a vehicle of 0.2 ml sesame oil each. Necropsy was performed on day 15. The prostate and seminal vesicles were removed, blotted and weighed. Data were analyzed for statistical significance using the Student's t-test and are expressed as percent inhibition of stimulated response.

The test system of another assay is seminal vesicles. Description: Antiandrogenic activity in castrated testosterone stimulated hamsters, seminal vesicles. The note with it: testosterone 20 μg s.c. daily, 14 days; vehicle 36 ± 3; mg ± SEM. The class given is in vivo, male Syrian hamsters. Here is the method:
as §1, §2

Molecule `CCC(=O)O[C@H]1CC[C@H]2[C@@H]3CCC4=CC(=O)CC[C@]4(C)[C@H]3CC[C@]12C` [Testosterone, testosterone propionate, reference compound] came in with a Ventral prostate weight with ventral prostate of 43 ± 5 mg. Also, the Seminal vesicles weight with seminal vesicles is listed as 105 ± 6 mg.
